Literature values, collected in patent publication US20260216230A1, “SERRATIA ANTICANCER POLYSACCHARIDE COMPOSITIONS AND METHODS” (Board of Supervisors of Louisiana State University and …, priority 2023, published 2026).

Tested on: refractory Stage 4 patients
Details: phase I

CC(=O)O[C@H]1C(=O)[C@@]2(C)[C@H]([C@H](OC(=O)c3ccccc3)[C@]3(O)C[C@H](OC(=O)[C@H](O)[C@@H](NC(=O)c4ccccc4)c4ccccc4)C(C)=C1C3(C)C)[C@]1(OC(C)=O)CO[C@@H]1C[C@@H]2O [Taxol]
effectivity: 12%
